# Assay results as given in PubChem BioAssay (NCI).
#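 These data come from cells grown in 96-well plates and exposed to compound for 48 hours at five concentrations. GI50: concentration for 50% inhibition of growth. TGI marks complete inhibition of growth.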
# Tests used:
# Assay in all cases: DTP human tumour cell line panel, 48 h
# [1] = test system: A498 renal
# [2] = test system: ACHN renal
# [3] = test system: EKVX NSCLC
# [4] = test system: MALME-3M melanoma
# [5] = test system: MDA-MB-231 breast
# [6] = test system: MOLT-4 leukemia
# [7] = test system: NCI-H226 lung
# [8] = test system: PC-3 prostate
# [9] = test system: SF-539 CNS
# [10] = test system: TK-10 renal
SMILES,GI50 [1] [µM],TGI [1] [µM],GI50 [2] [µM],TGI [2] [µM],GI50 [3] [µM],TGI [3] [µM],GI50 [4] [µM],TGI [4] [µM],GI50 [5] [µM],TGI [5] [µM],GI50 [6] [µM],TGI [6] [µM],GI50 [7] [µM],TGI [7] [µM],GI50 [8] [µM],TGI [8] [µM],GI50 [9] [µM],TGI [9] [µM],GI50 [10] [µM],TGI [10] [µM]
CN1CCN(Cc2ccc(C(=O)Nc3cncc(C#Cc4cnc(N)c5ccccc45)c3)cc2C(F)(F)F)CC1,1.52,3.73,1.52,2.97,1.99,6.06,1.71,3.25,1.37,2.87,2.17,5.31,3.18,27.5,2.74,10.1,1.54,2.89,1.99,3.74
CC(C)(C)c1cc(O)c(O)c(C(C)(C)C)c1,6.19,19.8,2.15,4.13,3.76,17.5,3.13,9.71,8.55,23.2,3.03,8.67,6.35,22.8,3.55,15.9,3.47,11,3.08,7.4
COc1ccc(-c2nn(-c3cccc(Cl)c3)cc2C2CC(c3ccccc3)=NN2C(C)=O)cc1 (stereo not drawn),3.33,50.4,3.48,20,8.75,> 100,4.87,35.2,7.99,> 100,> 100,> 100,3.86,30.9,6.8,> 100,5.4,58.7,5,21.6
CSc1nc(SC)c2c(CN=[N+]=[N-])c(Br)n(Cc3ccccc3)c2n1,–,> 100,–,> 100,–,> 100,–,> 100,–,> 100,–,> 100,–,> 100,–,> 100,–,> 100,–,> 100
CCN1CCN(c2nc(NCCCNc3ccnc4cc(Cl)ccc34)c3ccccc3n2)CC1,11.3,23.5,2.04,4.54,3.03,14.4,1.78,3.45,2.08,5.14,2.07,9.04,4.97,26,3.09,14.5,1.71,3.34,2.17,4.79
COc1cccc(/C=C/C(=O)c2cc3c(N)c(C(=O)Nc4ccccc4C)sc3nc2C)c1,0.989,4.4,0.894,1.86,1.84,10.8,2.29,12.6,1.46,4.08,1.49,27.8,1.07,2.92,1.69,8.3,1.13,2.91,1.55,6.21
N/C(CC(=O)Nc1cc(C(F)(F)F)ccc1Cl)=N\O,–,> 100,–,> 100,–,> 100,–,> 100,–,> 100,–,> 100,–,> 100,–,> 100,–,> 100,–,> 100
Cc1nn(-c2ccc(S(=O)(=O)[O-])cc2)c([O-])c1N=[N+](C)c1ccc(-c2ccc(N=Nc3ccc4c(S(=O)(=O)[O-])cc(S(=O)(=O)[O-])c(N)c4c3[O-])c([O-])c2)cc1[O-].[Cu+2].[Cu+2].[Na+],> 100,> 100,> 100,> 100,> 100,> 100,> 100,> 100,> 100,> 100,> 100,> 100,> 100,> 100,> 100,> 100,> 100,> 100,> 100,> 100
O=C(CSc1nc2ccc([N+](=O)[O-])cc2[nH]1)Nc1ccc(F)c(Cl)c1,1.11,3.6,2.35,7.93,1.85,8.85,1.75,6.96,1.91,5.59,2.7,19.9,2.15,9.57,2.57,11.6,3,11.4,4.08,15.9
CCOc1ccc(S(=O)(=O)/N=C2\C=C(SCC(=O)O)C(=O)c3ccccc32)cc1,21.6,37,6.8,20.2,3.29,11.3,2.13,3.69,2.84,12.2,2.38,6.06,21.7,50.6,2.92,13.1,2.49,5.39,26.5,56.9
C=C1C(=O)O[C@H]2[C@H]1CC/C(CNC(=O)c1c[nH]c3ccc(F)cc13)=C\CC[C@@]1(C)O[C@@H]21,1.99,11.9,1.04,2.38,1.68,5.6,1.41,3.3,1.46,3.58,1.32,4.53,13.9,38.6,2.91,12.1,1.37,2.81,–,–
C=CC(=O)N[C@H]1C=C(C)c2c(-c3cnc4ccccc4c3)c3c(N)ncnc3n2C1,0.351,3.99,0.249,16.8,0.0785,42.6,11.6,25.7,9.57,27,24.5,> 100,8.85,> 68.1,22.7,> 100,13.3,31.6,0.0478,7.88
